SMILES strings stand for the structures.

We go through one molecule from US11564990B2, “Multi-drug-loading-site, high drug-loading capacity ligand-drug conjugate” (JenKem Technology Co., Ltd. (Beijing), priority 2017, dated 2023).

Data set [1] in a line: Determination of drug antibody coupling ratio (DAR) by UV/Vis method. Particulars: two-step coupling products, UV-Vis; moles of drug divided by moles of antibody. In kind it is physicochemical. The source says: In formula (1), the sum of the absorbances of the drug and the antibody at 280 nm constitutes the total absorbance (A280): A280=(εdrug^280Cdrug+εmAb^280CmAb)l (1)
wherein εdrug^280 is the extinction coefficient of the drug at 280 nm; Cdrug is the drug concentration (mg/mL); […] the extinction coefficient of the antibody at 280 nm; CmAb is the concentration of the antibody.
Equation (2) is the parallel equation for the total absorbance of the drug at the maximum absorption λ(D): Aλ(D)=(εdrug^λ(D)Cdrug+εmAb^λ(D)CmAb)l (2)
wherein εdrug^λ(D) is the extinction coefficient of the drug at λ(D)nm; Cdrug is the drug concentration (mg/mL); εmAb^λ(D) is the extinction coefficient of the antibody at λ(D)nm; CmAb is the concentration of the antibody (mg/mL).
The concentration of antibody and drug can be calculated separately by two equations (1) and (2). CmAb=(A280εdrug^λ(D)−Aλ(D)εdrug^280)/[(εmAb^280εdrug^λ(D)−εmAb^λ(D)εdrug^280)l] (3) Cdrug=(A280εmAb^λ(D)−Aλ(D)εmAb^280)/[(εdrug^280εmAb^λ(D)−εdrug^λ(D)εmAb^280)l] (4)
The average drug antibody coupling ratio (DAR) calculated by dividing
[formula] is expressed as the number of moles of drug divided by the number of moles of antibody: […]

Data set [2] deals with colorectal cancer model (HCT-116). Kind of data set: Efficacy test in colorectal cancer model in which HER2 was not expressed. In kind it is in vivo, nude mice. Particulars: HCT-116 model. The protocol: Experimental method: Evaluation of the efficacy of the sample was performed using a colorectal cancer model in which HER2 was not expressed. The cell line at logarithmic growth phase was inoculated subcutaneously into the right side of the immunodeficient mice, and the cell inoculation amount was 5×10^6 cells/mouse. After the transplanted tumor was formed, allow it grow in the mice for 2 passage before use. The tumor tissue with strong growth period was cut into tumor pieces with a diameter of about 2 mm, and inoculated subcutaneously into the right torso of nude mice under sterile conditions. The formed tumor tissue is measured by a vernier caliper, and the long and short diameters are represented by a and b, respectively, and the tumor volume (TV) is calculated as: TV=½×a×b^2. Animals were randomized after tumor growth to 100-150 mm^3. Both models were divided into vehicle group, control group (recombinant anti-HER2 humanized monoclonal antibody Ab, 30 mg/kg) and test group I (administered with APEGA-8, 9, 10, respectively (prepared in Example 6-8), the dose was 30 mg/kg in terms of Ab, and the test group II (PEG-Irinotecan (prepared in Example 5), the dose was 30 mg/kg). Both the test article and the control drug were administered once a week vial the tail vein for a total of three administrations. The diameter of the transplanted tumor was measured twice a week during the entire experiment, and the body weight of the mice was weighed. After the end of the administration, continue to observe the animals for a week, and then they were sacrificed.

The nature of data set [3]: Antibody pharmacokinetic assay in rats (total antibody in plasma by HER2 ELISA). Particulars: SD rats, intravenous 30 mg/kg, compared with control Ab. (In general: In an ELISA, binding on a coated surface is turned into a signal by an enzyme label.)

As for `CCc1c2c(nc3ccc(OC(=O)N4CCC(N5CCCCC5)CC4)cc13)-c1cc3c(c(=O)n1C2)COC(=O)[C@]3(C)CC` [APEGA-8], the “DAR (average drug antibody coupling ratio)” value in data set [1] is given as 22.2. The “antitumor activities in relation to drug loading” value in data set [2] (30 mg/kg in terms of Ab, QW×3) is recorded as “increased with the drug loading”. Besides, in data set [2] (irinotecan dose 2.6, 4.2, 11.2 mg/kg respectively), the “efficacy compared with group II (PEG-Irinotecan 30 mg/kg)” value was “still better than group II”. Besides, the “Tumor inhibition rate (%)” value in data set [2] (third week of administration, 30 mg/kg QW×3 via tail vein) is recorded as 40.1%. Also, the “elimination rate in rat plasma (total antibody)” value in data set [3] is reported as “increased to a certain extent compared with the control Ab, but the decline trend was not significant”.
